In ChEMBL document CHEMBL6120983, “Synthesis and Structure-Activity Relationship of Covalent Inhibitors of SARS-CoV-2 Papain-Like Protease with Antiviral Potency” (Bioorg Med Chem Lett, 2025):

Tests used:
[1] = Intrinsic clearance in mouse liver microsomes; type: ADME, Microsome; conditions: read-out: CLH
[2] = Clearance in dog at 20 mg/kg, po; type: ADME, organism-based, Canis lupus familiaris; conditions: in vivo
[3] = AUC (0 to last) in dog at 20 mg/kg, po; type: ADME, organism-based, Canis lupus familiaris; conditions: in vivo
[4] = Plasma protein binding in human; type: ADME, cell-free; conditions: read-out: PPB (converted)
[5] = AUC (0 to last) in dog at 2 mg/kg, iv; type: ADME, organism-based, Canis lupus familiaris; conditions: in vivo
[6] = Half life in dog at 20 mg/kg, po; type: ADME, organism-based, Canis lupus familiaris; conditions: in vivo
[7] = Volume of distribution in dog at 2 mg/kg, iv; type: ADME, organism-based, Canis lupus familiaris; conditions: in vivo
[8] = system: SARS-CoV-2; experiment: Antiviral activity against SARS CoV-2 infected in human HeLa-ACE2 assessed as reduction in viral replication incubated for 24 hrs; type: functional; conditions: Severe acute respiratory syndrome coronavirus 2, HeLa-ACE2
[9] = Clearance in dog at 2 mg/kg, iv; type: ADME, organism-based, Canis lupus familiaris; conditions: in vivo
[10] = Cytotoxicity against human A549-ACE2 cells assessed as reduction in cell viability; type: toxicity, cell-based
[11] = Tlast in dog at 20 mg/kg, po; type: ADME, organism-based, Canis lupus familiaris; conditions: in vivo
[12] = Tlast in dog at 2 mg/kg, iv; type: ADME, organism-based, Canis lupus familiaris; conditions: in vivo
[13] = MRT (0 to last) in dog at 2 mg/kg, iv; type: ADME, organism-based, Canis lupus familiaris; conditions: in vivo
[14] = Cmax in dog at 2 mg/kg, iv; type: ADME, organism-based, Canis lupus familiaris; conditions: in vivo
[15] = MRT (0 to last) in dog at 20 mg/kg, po; type: ADME, organism-based, Canis lupus familiaris; conditions: in vivo
[16] = Oral bioavailability in dog at 20 mg/kg; type: ADME, organism-based, Canis lupus familiaris; conditions: in vivo
[17] = Lipophilicity, logD of compound; type: physicochemical; conditions: octanol/water
[18] = Cmax in dog at 20 mg/kg, po; type: ADME, organism-based, Canis lupus familiaris; conditions: in vivo
[19] = Half life in dog at 2 mg/kg, iv; type: ADME, organism-based, Canis lupus familiaris; conditions: in vivo
[20] = molecular target: Replicase polyprotein 1ab (Severe acute respiratory syndrome coronavirus 2, UniProt P0DTD1); experiment: Inhibition of SARS-CoV-2 papain-like protease using Z-Arg-Leu-Arg-Gly-Gly-AMC as substrate incubated for 15 mins
[21] = Ratio of CC50 for cytotoxicity against human A549-ACE2 cells assessed as reduction in cell viability to EC90 for antiviral activity against SARS CoV-2 infected in human HeLa-ACE2 assessed as reduction in viral replication; type: toxicity, cell-based

Structure (SMILES)	EC90 [8] [µM]	CC50 ([10]; a549-ace2) [µM]	CC50 ([10]; A549-ACE2 cells) [µM]	IC50 [20] [µM]	other results
COC(=O)/C=C/C(=O)NNC(=O)CCc1ccccc1C(=O)N[C@H](C)c1cccc2ccccc12	0.49	29.9			microsomal CLint [1]: 144 µL/min/mg; CL/F [2]: 3710 mL/min/kg; AUC(0-t) [3]: 91 ng·h/mL; fraction unbound [4]: 0.049; AUC(0-t) [5]: 315 ng·h/mL; half-life [6]: 72.6 min; Vd [7]: 0.742 L/kg; clearance [9]: 107 mL/min/kg; Tlast [11]: 8 h; Tlast [12]: 1 h; MRT last [13]: 6.84 min; Cmax [14]: 2840 ng/mL; MRT last [15]: 97.2 min; bioavailability [16]: 2.9%; logD [17]: 3; Cmax [18]: 84 ng/mL; half-life [19]: 6 min
C[C@@H](NC(=O)c1ccccc1CCC(=O)NNC(=O)CC#N)c1cccc2ccccc12	> 9.6		> 99	9.5	
C[C@@H](NC(=O)c1ccccc1CCC(=O)NNC(=O)/C=C/C(=O)OCc1nccs1)c1cccc2ccccc12	9.23	16		0.34	
COC(=O)/C=C\C(=O)NNC(=O)CCc1ccccc1C(=O)N[C@H](C)c1cccc2ccccc12	0.71	34.6			
C[C@@H](NC(=O)c1ccccc1CCC(=O)NNC(=O)/C=C/C(=O)OCC1CCCC1)c1cccc2ccccc12	0.31	69.5		1.62	
COC(=O)/C=C/C(=O)NNC(=O)CCc1ccccc1C(=O)N[C@H](C)c1cccc(-c2cn[nH]c2)c1	3.58		> 99	0.21	
C[C@@H](NC(=O)c1ccccc1CCC(=O)NNC(=O)/C=C/C(=O)OCCC(F)(F)F)c1cccc2ccccc12	1.26	61.9		0.25	
C[C@@H](NC(=O)c1ccccc1CCC(=O)NNC(=O)/C=C/C(=O)OC1CCCCC1)c1cccc2ccccc12	0.41		> 99	0.96	
CCOC(=O)/C=C/C(=O)NNC(=O)CCc1ccccc1C(=O)N[C@H](C)c1cccc2ccccc12	0.31	44.7		0.19	
C[C@@H](NC(=O)c1ccccc1CCC(=O)NNC(=O)/C=C/C(=O)N(C)C)c1cccc2ccccc12	> 9.6		> 99	18.5	
C=C(CC(=O)NNC(=O)CCc1ccccc1C(=O)N[C@H](C)c1cccc2ccccc12)C(=O)OC	8.3	6.1		17.9	
COC(=O)/C=C/C(=O)NNC(=O)CCc1ccccc1C(=O)N[C@H](C)c1cccc(C2=CCOCC2)c1	1.24	48.4		0.29	
COC(=O)/C=C/CNC(=O)CCc1ccccc1C(=O)N[C@H](C)c1cccc2ccccc12	> 9.6	87.9		26.2	
C[C@@H](NC(=O)c1ccccc1CCC(=O)NNC(=O)C(F)Cl)c1cccc2ccccc12 (stereo not given in full)	> 9.6		> 99	15.8	
C[C@@H](NC(=O)c1ccccc1CCC(=O)NNC(=O)/C=C/C(=O)OCc1ncccn1)c1cccc2ccccc12	3.03	30.1		0.35	
CC(=O)C(=O)NNC(=O)CCc1ccccc1C(=O)N[C@H](C)c1cccc2ccccc12	> 9.6		> 99	37.3	
CCCCOC(=O)/C=C/C(=O)NNC(=O)CCc1ccccc1C(=O)N[C@H](C)c1cccc2ccccc12	0.18		> 99	0.24	

Structure (SMILES)	EC90 [8] [µM]	CC50 ([10]; a549-ace2) [µM]	CC50 ([10]; A549-ACE2 cells) [µM]	IC50 [20] [µM]	other results
CC#CC(=O)NNC(=O)CCc1ccccc1C(=O)N[C@H](C)c1cccc2ccccc12	> 9.6	68.9		11.3	
C[C@@H](NC(=O)c1ccccc1CCC(=O)NNC(=O)/C=C/C(=O)OC(C)(C)C)c1cccc2ccccc12	1.75	64		0.24	
C[C@@H](NC(=O)c1ccccc1CCC(=O)NNC(=O)/C=C/C(=O)OCc1ccccc1)c1cccc2ccccc12	0.78	98.9		0.52	
CC(=O)/C=C/C(=O)NNC(=O)CCc1ccccc1C(=O)N[C@H](C)c1cccc2ccccc12	12.9		> 99	27.2	
C[C@@H](NC(=O)c1ccccc1CCC(=O)NNC(=O)/C=C/C(=O)O)c1cccc2ccccc12	> 9.6		> 99	2.6	
CNC(=O)/C=C/C(=O)NNC(=O)CCc1ccccc1C(=O)N[C@H](C)c1cccc2ccccc12	> 9.6		> 99	16.2	
C[C@@H](NC(=O)c1ccccc1CCC(=O)NNC(=O)/C=C/C#N)c1cccc2ccccc12	15.2	13.1		1.9	
COc1ccc(COC(=O)/C=C/C(=O)NNC(=O)CCc2ccccc2C(=O)N[C@H](C)c2cccc3ccccc23)cc1OC	0.26		> 99	1.01	
C[C@@H](NC(=O)c1ccccc1CCC(=O)NNC(=O)COC(F)(F)F)c1cccc2ccccc12	> 9.6		> 99	52.9	
C[C@@H](NC(=O)c1ccccc1CCC(=O)NNC(=O)/C=C/C(=O)OC1CCC1)c1cccc2ccccc12	0.27	64.8		0.33	
CCOC(=O)/C=C/C(=O)NNC(=O)CCc1ccccc1C(=O)N[C@H](C)c1cccc(-c2cccs2)c1	0.21			0.14	microsomal CLint [1]: 618 µL/min/mg; CL/F [2]: 5090 mL/min/kg; AUC(0-t) [3]: 62 ng·h/mL; fraction unbound [4]: 0.014; AUC(0-t) [5]: 362 ng·h/mL; half-life [6]: 157 min; Vd [7]: 0.681 L/kg; clearance [9]: 95.1 mL/min/kg; Tlast [11]: 8 h; Tlast [12]: 1 h; MRT last [13]: 7.02 min; Cmax [14]: 3220 ng/mL; MRT last [15]: 176 min; bioavailability [16]: 1.9%; Cmax [18]: 20 ng/mL; half-life [19]: 6.48 min; selectivity ratio [21]: 56.7
COC(=O)/C=C/C(=O)NNC(=O)CCc1ccccc1C(=O)N[C@H](C)c1cccc(-c2cc3ccccc3o2)c1	0.12	59		0.25	
CC(C)OC(=O)/C=C/C(=O)NNC(=O)CCc1ccccc1C(=O)N[C@H](C)c1cccc2ccccc12	0.56	59.3		0.24	
COC(=O)/C=C/C(=O)NNC(=O)CCc1ccccc1C(=O)N[C@H](C)c1cccc(-c2cncnc2)c1	9.55		> 99	0.35	
C[C@@H](NC(=O)c1ccccc1CCC(=O)NNC(=O)/C=C/C(=O)OCc1ccc2ccccc2n1)c1cccc2ccccc12	1.14	13.6		0.45	
C[C@@H](NC(=O)c1ccccc1CCC(=O)NNC(=O)/C=C/c1ncco1)c1cccc2ccccc12	> 9.6		> 99	44.5	
